Legend:
Type in all cases: in vivo, Wistar rats
[1] = Blood ethanol levels (BEL) during 4-day alcohol intoxication protocol; settings: before and after force-feeding; two-way repeated measure ANOVA n.s.
Protocol: The animals were treated with intragastric (i.g.) ethanol 3 times a day using an i.g. cannula (16G needle, Fisher Scientific, Waltham, Mass., USA), following a protocol based on a slightly modified standard 4-day alcohol intoxication pattern (Bernier et al., 2002a, b) (FIG. 1A). The ethanol doses were administered every 8 h for a total time of 4 days. The rats treated with ethanol received an initial loading dose of 5 g/kg of ethanol in a 30% solution (w/v) and then a maximum maintenance dose of 3 g/kg, which were determined based on blood ethanol levels (BEL). This repeated standard alcohol intoxication paradigm kept BEL intoxication relatively constant in a range of sedation/ataxia (190 to 430 mg/dl, Table 3), according to the 6-point alcohol intoxication behavior scale (Majchrowicz, 1975). The mean dose of ethanol/rat/day (days 1-4) was 7.06 g/kg, similar to other studies (Obernier et al., 2002a, b). To confirm intoxication, BEL was determined in blood samples taken from the tail 120 minutes before and after the second i.g. administration of ethanol of the day, which was done at 3 pm by means of the use of electrochemical detection of an enzymatic reaction with an AM1 alcohol analyzer (Analox Instruments, London, United Kingdom). […]

[2] = test system: MD2; test: MD2 protein expression in frontal cortex after ethanol intoxication; settings: 2-4 h after last ethanol, OEA pre-treatment
Protocol: (§1) The animals were treated with intragastric (i.g.) ethanol 3 times a day using an i.g. cannula (16G needle, Fisher Scientific, Waltham, Mass., USA), following a protocol based on a slightly modified standard 4-day alcohol intoxication pattern (Bernier et al., 2002a, b) (FIG. 1A). The ethanol doses were administered every 8 h for a total time of 4 days. The rats treated with ethanol received an initial loading dose of 5 g/kg of ethanol in a 30% solution (w/v) and then a maximum maintenance dose of 3 g/kg, which were determined based on blood ethanol levels (BEL). This repeated standard alcohol intoxication paradigm kept BEL intoxication relatively constant in a range of sedation/ataxia (190 to 430 mg/dl, Table 3), according to the 6-point alcohol intoxication behavior scale (Majchrowicz, 1975). The mean dose of ethanol/rat/day (days 1-4) was 7.06 g/kg, similar to other studies (Obernier et al., 2002a, b). OEA (5 mg/kg, i.p., except initial dose of 10 mg/kg i.p.; synthesized as described in Giuffrida et al., 2000) was dissolved in the vehicle (5% Tween-80 in saline solution) and injected 10 minutes before each of the administrations of ethanol by an intragastric gavage. […] The autoradiograph was quantified by densitometry (NIH ImageJ® software, National Biosciences, Lincoln, Nebr. USA) and expressed as optical density (OD). […]

[3] = test system: COX-2; test: COX-2 mRNA in frontal cortex after ethanol intoxication; settings: ethanol-treated animals (not in vehicle-treated animals), OEA pre-treatment
Protocol: as §1, with “quantitative changes in mRNA levels were estimated” for “autoradiograph was quantified”, “means of RT-PCR, carried out in the presence of the SYBR green primer using a 20-L reaction in a Rotor-Gene (Corbett Research®, Mortlake, NSW, Australia).” for “densitometry (NIH ImageJ® software, National Biosciences, Lincoln, Nebr. USA) and expressed as optical density (OD).”

Compound: CCCCCCCC/C=C\CCCCCCCC(=O)NCCO [OEA, oleoylethanolamide]
- Effect of OEA pre-treatment on BEL reached during days 2-4 [1]: did not change
- Ethanol-induced increase in MD2 protein [2]: inhibited
- Levels of COX-2 mRNA with ethanol [3]: reduced
